According to patent US20250034170A1, “SMALL MOLECULE MODULATORS OF GLUCOCEREBROSIDASE ACTIVITY AND USES THEREOF” (Vanqua Bio, Inc., priority 2021, published 2025):

biological target: T1, GCase (Homo sapiens, UniProt P04062); experiment: activation of GCase in a live cell PFB assay in HELA cells; format: cell-based; settings: EC50 given as range classes
T1 construct: endogenous in cells; host or cells: HeLa cells
T1 sequence (P04062 40-536): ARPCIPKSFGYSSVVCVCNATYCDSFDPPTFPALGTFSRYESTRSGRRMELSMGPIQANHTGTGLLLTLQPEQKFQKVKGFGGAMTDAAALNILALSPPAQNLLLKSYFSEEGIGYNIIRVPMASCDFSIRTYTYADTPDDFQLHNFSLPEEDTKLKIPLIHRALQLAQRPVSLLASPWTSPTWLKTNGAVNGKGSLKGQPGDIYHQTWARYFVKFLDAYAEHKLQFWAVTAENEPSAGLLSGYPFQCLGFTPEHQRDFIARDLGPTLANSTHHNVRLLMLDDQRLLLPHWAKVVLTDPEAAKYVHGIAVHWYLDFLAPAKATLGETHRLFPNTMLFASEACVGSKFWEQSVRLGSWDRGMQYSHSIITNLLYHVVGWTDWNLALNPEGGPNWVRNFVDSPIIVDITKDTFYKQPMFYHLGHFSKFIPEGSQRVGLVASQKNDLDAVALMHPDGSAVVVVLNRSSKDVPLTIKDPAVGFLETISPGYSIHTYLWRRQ
Procedure: Exemplary compounds were evaluated for activation of GCase in a live cell PFB assay in HELA cells (essentially as described in Ysselstein et al., “LRRK2 kinase activity regulates lysosomal glucocerebrosidase in neurons derived from Parkinson's disease patients” Nature Communications (2019) 10:5570). […] EC50 ranges: A: <10 μM; B: >10-50 μM; C: >50-100 μM; D: >100 μM.

EC50 [µM]	SMILES
< 10	Cn1c(=O)n(C2COC2)c2nc(N3CCC4(CN(c5ccnc(C(F)(F)F)c5)C4)C3)cnc21 [Cmpd 978]
< 10	Cn1c(=O)n(C2COC2)c2ncc(N3CCC4(CN(c5ccnc(C(F)(F)F)c5)C4)C3)nc21 [Cmpd 979]
< 10	CCn1c(=O)n(CC(F)F)c2nc(N3CCC4(CN(c5ccnc(C(F)(F)F)c5)C4)C3)cnc21 [Cmpd 980]
10 to 50	CCn1c(=O)n(C2COC2)c2nc(N3CCC4(CN(c5ccnc(C(F)(F)F)c5)C4)C3)cnc21 [Cmpd 981]
10 to 50	CCn1c(=O)n(C2COC2)c2ncc(N3CCC4(CN(c5ccnc(C(F)(F)F)c5)C4)C3)nc21 [Cmpd 982]
10 to 50	CCN1C(=O)N(c2ccnc(C(F)(F)F)c2)C(=O)C12CCN(c1cnc3cnn(C4COC4)c3n1)CC2 [Cmpd 983]
< 10	CCN1C(=O)N(c2ccnc(C(F)(F)F)c2)C(=O)C12CCN(c1cnc3c(C)nn(C4COC4)c3n1)CC2 [Cmpd 984]
> 100	Cc1nn(CC(F)F)c2nc(N3CCC4(CN(c5ccnc(C(F)(F)F)c5)C4)C3)cnc12 [Cmpd 985]
< 10	FC(F)(F)c1cc(N2CC3(CCN(c4nccc(-c5nncs5)n4)C3)C2)ccn1 [Cmpd 986]

same assay, conditions: activation of GCase, EC50 ranges

SMILES	EC50 [µM]
O=C1CC2(CCN(c3ncc4cnn(CC(F)F)c4n3)CC2)CN1Cc1cnc(C(F)(F)F)nc1 [Cmpd 917]	50 to 100
O=C1CC2(CCN(c3cnc4cnn(CC(F)F)c4n3)CC2)CN1Cc1ccc(OC(F)(F)F)nc1 [Cmpd 918]	10 to 50
O=C1CC2(CCN(c3cnc4cnn(CC(F)F)c4n3)CC2)CN1Cc1ccnc(OC(F)F)c1 [Cmpd 919]	< 10
O=C1CC2(CCN(c3ncc4cnn(CC(F)F)c4n3)CC2)CN1c1ccc(OCC(F)(F)F)nc1 [Cmpd 921]	10 to 50
Cn1c(N2CCC3(CC2)CC(=O)N(c2cc(C(F)(F)F)ccn2)C3)nc2c(cnn2CC(F)F)c1=O [Cmpd 922]	< 10
Cn1c(N2CCC3(CC2)CC(=O)N(c2ccc(C(F)(F)F)nc2)C3)nc2c(cnn2CC(F)F)c1=O [Cmpd 925]	10 to 50
Cn1c(N2CCC3(CC2)CC(=O)N(Cc2cnc(C(F)(F)F)nc2)C3)nc2c(cnn2CC(F)F)c1=O [Cmpd 926]	10 to 50
COc1cc(N2CC3(CCN(c4cnc5cnn(CC(F)F)c5n4)C3)C2)ccn1 [Cmpd 929]	10 to 50
CCOc1nn(CC(F)F)c2nc(N3CCC4(CN(c5cc(C(F)(F)F)nc(C)n5)C4)C3)cnc12 [Cmpd 935]	50 to 100
COc1nn(CC(F)F)c2nc(N3CCC4(CN(c5ccnc(C(F)(F)F)c5)C4)C3)cnc12 [Cmpd 936]	< 10
CCOc1nn(CC(F)F)c2nc(N3CCC4(CN(c5ccnc(C(F)(F)F)c5)C4)C3)cnc12 [Cmpd 937]	< 10
COc1nn(CC(F)F)c2nc(N3CCC4(CN(c5ccnc(C(F)(F)F)c5)C4)C3)ncc12 [Cmpd 938]	10 to 50
CCOc1nn(CC(F)F)c2nc(N3CCC4(CN(c5ccnc(C(F)(F)F)c5)C4)C3)ncc12 [Cmpd 939]	< 10
COc1nn(CC(F)F)c2nc(N3CCC4(CC3)CC(=O)N(c3nccc(C(F)(F)F)n3)C4)cnc12 [Cmpd 942]	10 to 50
CCOc1nn(CC(F)F)c2nc(N3CCC4(CC3)CC(=O)N(c3ccc(C(F)(F)F)nc3)C4)cnc12 [Cmpd 947]	< 10
COc1nn(CC(F)F)c2nc(N3CCC4(CC3)CC(=O)N(c3ccc(C(F)(F)F)nc3)C4)ncc12 [Cmpd 948]	10 to 50
CCOc1nn(CC(F)F)c2nc(N3CCC4(CC3)CC(=O)N(c3ccc(C(F)(F)F)nc3)C4)ncc12 [Cmpd 949]	10 to 50
Cc1cnc(C(F)(F)F)nc1N1CC2(CCN(c3cnc4cnn(CC(F)F)c4n3)CC2)CC1=O [Cmpd 956]	> 100

SMILES	EC50 [µM]
Cc1nc(C(F)(F)F)ncc1N1CC2(CCN(c3cnc4cnn(CC(F)F)c4n3)C2)C1 [Cmpd 957]	10 to 50
FC(F)Cn1ncc2ncc(N3CCC4(CN(c5cnc(C(F)F)nc5)C4)C3)nc21 [Cmpd 958]	< 10
Cc1nc(OCC(F)(F)F)ncc1N1CC2(CCN(c3cnc4cnn(CC(F)F)c4n3)C2)C1 [Cmpd 959]	10 to 50
FC(F)Cn1ncc2ncc(N3CCC4(CN(c5ccnc(OCC(F)(F)F)n5)C4)C3)nc21 [Cmpd 960]	10 to 50
Cc1cnc(C(F)(F)F)nc1N1CC2(CCN(c3cnc4cnn(CC(F)F)c4n3)C2)C1 [Cmpd 961]	10 to 50
O=C1CC2(CCN(c3cnc4cnn(CC(F)F)c4n3)CC2)CN1Cc1ncc(C(F)(F)F)cc1F [Cmpd 963]	< 10
CC(c1ccc(C(F)(F)F)cn1)N1CC2(CCN(c3cnc4cnn(CC(F)F)c4n3)CC2)CC1=O (stereo not drawn) [Cmpd 964]	< 10
O=C1CC2(CCN(c3cnc4cnn(CC(F)F)c4n3)CC2)CN1Cc1ccnc(C(F)(F)F)c1F [Cmpd 966]	< 10
CC(c1ccc(Cl)cn1)N1CC2(CCN(c3cnc4cnn(CC(F)F)c4n3)CC2)CC1=O (stereo not drawn) [Cmpd 967]	< 10
CC(c1cncc(Cl)c1)N1CC2(CCN(c3cnc4cnn(CC(F)F)c4n3)CC2)CC1=O (stereo not drawn) [Cmpd 968]	< 10
COc1nccc(CN2CC3(CCN(c4cnc5cnn(CC(F)F)c5n4)CC3)CC2=O)n1 [Cmpd 970]	50 to 100
O=C1CC2(CCN(c3cnc4cnn(CC(F)F)c4n3)CC2)CN1Cc1ccnc(OCC(F)(F)F)n1 [Cmpd 971]	< 10
Cc1cc(CN2CC3(CCN(c4cnc5cnn(CC(F)F)c5n4)CC3)CC2=O)on1 [Cmpd 972]	10 to 50
CCc1sc(C(F)(F)F)nc1N1CC2(CCN(c3cnc4cnn(CC(F)F)c4n3)CC2)CC1=O [Cmpd 973]	10 to 50
Cc1ncc(CN2CC3(CCN(c4cnc5cnn(CC(F)F)c5n4)CC3)CC2=O)o1 [Cmpd 974]	50 to 100
Cc1cnc(CN2CC3(CCN(c4cnc5cnn(CC(F)F)c5n4)CC3)CC2=O)s1 [Cmpd 975]	10 to 50
CCc1cnc(CN2CC3(CCN(c4cnc5cnn(CC(F)F)c5n4)CC3)CC2=O)s1 [Cmpd 976]	< 10

The remaining lines, values ahead:

EC50 [µM]	SMILES
< 10	Cn1c(N2CCC3(CC2)CC(=O)N(c2ccnc(C(F)(F)F)c2)C3)nc2c(cnn2CC(F)F)c1=O [Cmpd 923]
< 10	FC(F)(F)Cn1ncc2ncc(N3CCC4(CN(c5ccnc(C(F)(F)F)c5)C4)C3)nc21 [Cmpd 924]
10 to 50	O=C1N(Cc2cnc(C(F)(F)F)cn2)CCC12CCN(c1cnc3cnn(CC(F)F)c3n1)CC2 [Cmpd 927]
10 to 50	Cc1ncc(C(F)(F)F)nc1N1CCC2(CCN(c3cnc4cnn(CC(F)F)c4n3)CC2)C1=O [Cmpd 928]
10 to 50	O=C1CC2(CCN(c3cnc4cnn(CC(F)F)c4n3)CC2)CN1Cc1cnc(C(F)(F)F)cn1 [Cmpd 930]
10 to 50	Cc1nn(C2COC2)c2nc(N3CCC4(CN(c5ccnc(C(F)(F)F)c5)C4)C3)cnc12 [Cmpd 931]
10 to 50	Cc1nn(C2COC2)c2nc(N3CCC4(CN(c5ccnc(C(F)(F)F)c5)C4)C3)ncc12 [Cmpd 932]
< 10	FC(F)(F)c1cc(N2CC3(CCN(c4cnc5cnn(C[C@@H]6CCO6)c5n4)C3)C2)ccn1 [Cmpd 933]
< 10	FC(F)(F)c1cc(N2CC3(CCN(c4cnc5cnn(C[C@H]6CCO6)c5n4)C3)C2)ccn1 [Cmpd 934]
< 10	COc1nn(CC(F)F)c2nc(N3CCC4(CC3)CC(=O)N(c3ccnc(C(F)(F)F)c3)C4)cnc12 [Cmpd 940]
< 10	CCOc1nn(CC(F)F)c2nc(N3CCC4(CC3)CC(=O)N(c3ccnc(C(F)(F)F)c3)C4)cnc12 [Cmpd 941]
< 10	COc1nn(C2COC2)c2nc(N3CCC4(CN(c5ccnc(C(F)(F)F)c5)C4)C3)cnc12 [Cmpd 943]
< 10	CCOc1nn(C2COC2)c2nc(N3CCC4(CN(c5ccnc(C(F)(F)F)c5)C4)C3)cnc12 [Cmpd 944]
10 to 50	COc1nn(C2COC2)c2nc(N3CCC4(CN(c5ccnc(C(F)(F)F)c5)C4)C3)ncc12 [Cmpd 945]
10 to 50	CCOc1nn(C2COC2)c2nc(N3CCC4(CN(c5ccnc(C(F)(F)F)c5)C4)C3)ncc12 [Cmpd 946]
> 100	COc1nn(C2COC2)c2nc(N3CCC4(CC3)CC(=O)N(c3ccc(C(F)(F)F)nc3)C4)cnc12 [Cmpd 950]
< 10	CCOc1nn(C2COC2)c2nc(N3CCC4(CC3)CC(=O)N(c3ccc(C(F)(F)F)nc3)C4)cnc12 [Cmpd 951]
10 to 50	COc1nn(C2COC2)c2nc(N3CCC4(CC3)CC(=O)N(c3ccc(C(F)(F)F)nc3)C4)ncc12 [Cmpd 952]
10 to 50	CCOc1nn(C2COC2)c2nc(N3CCC4(CC3)CC(=O)N(c3ccc(C(F)(F)F)nc3)C4)ncc12 [Cmpd 953]
10 to 50	O=C1CC2(CCN(c3cnc4cnn(CC(F)F)c4n3)CC2)C(CCF)N1c1ccnc(C(F)(F)F)c1 (stereo not drawn) [Cmpd 954]
< 10	O=C1CC2(CCN(c3cnc4cnn(CC(F)F)c4n3)CC2)C(CC(F)F)N1c1ccnc(C(F)(F)F)c1 (stereo not drawn) [Cmpd 955]
10 to 50	FC(F)(F)c1cc(N2CC3(CCN(c4ncc5cnn(C6COC6)c5n4)C3)C2)ccn1 [Cmpd 962]
10 to 50	CC(c1ccc(C(F)(F)F)nc1)N1CC2(CCN(c3cnc4cnn(CC(F)F)c4n3)CC2)CC1=O (stereo not drawn) [Cmpd 965]
< 10	CC(c1ccnc(C(F)(F)F)c1)N1CC2(CCN(c3cnc4cnn(CC(F)F)c4n3)CC2)CC1=O (stereo not drawn) [Cmpd 969]
10 to 50	Cn1c(=O)n(CC(F)F)c2nc(N3CCC4(CN(c5ccnc(C(F)(F)F)c5)C4)C3)cnc21 [Cmpd 977]
